Measurements reported in PubChem BioAssay (NCI).
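96-well plates; 48 h exposure; 5 concentrations. Endpoints by linear interpolation between flanking doses. Not reached: highest tested concentration assigned. Abbreviation: GI50, concentration required for 50% inhibition of growth. TGI: total growth inhibition.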

How the values were obtained:
Assay in all cases: NCI-60 cell line screen, 48 h
RPMI-8226 leukemia = system: RPMI-8226 leukemia
MCF7 breast = system: MCF7 breast
MOLT-4 leukemia = system: MOLT-4 leukemia
KM12 colon = system: KM12 colon
SW-620 colon = system: SW-620 colon
SK-MEL-5 melanoma = system: SK-MEL-5 melanoma
786-0 renal = system: 786-0 renal
HL-60(TB) leukemia = system: HL-60(TB) leukemia
HOP-92 NSCLC = system: HOP-92 NSCLC
SK-OV-3 ovarian = system: SK-OV-3 ovarian
SR leukemia = system: SR leukemia
U251 CNS = system: U251 CNS
SNB-19 CNS = system: SNB-19 CNS
HS 578T breast = system: HS 578T breast
SK-MEL-28 melanoma = system: SK-MEL-28 melanoma
IGROV1 ovarian = system: IGROV1 ovarian
MDA-MB-435 = system: MDA-MB-435
K-562 leukemia = system: K-562 leukemia
HCT-116 colon = system: HCT-116 colon
DU-145 prostate = system: DU-145 prostate
SK-MEL-2 melanoma = system: SK-MEL-2 melanoma
NCI-H522 lung = system: NCI-H522 lung
MALME-3M melanoma = system: MALME-3M melanoma
RXF 393 renal = system: RXF 393 renal
M14 melanoma = system: M14 melanoma
A549 NSCLC = system: A549 NSCLC
HCC-2998 colon = system: HCC-2998 colon
NCI-H23 lung = system: NCI-H23 lung
SF-295 CNS = system: SF-295 CNS
HOP-62 NSCLC = system: HOP-62 NSCLC
COLO 205 colon = system: COLO 205 colon
NCI-H460 lung = system: NCI-H460 lung
OVCAR-4 ovarian = system: OVCAR-4 ovarian
BT-549 breast = system: BT-549 breast
UACC-257 melanoma = system: UACC-257 melanoma
ACHN renal = system: ACHN renal
TK-10 renal = system: TK-10 renal
MDA-MB-468 breast = system: MDA-MB-468 breast
OVCAR-5 ovarian = system: OVCAR-5 ovarian
UO-31 renal = system: UO-31 renal
SN12C renal = system: SN12C renal
HCT-15 colon = system: HCT-15 colon
CAKI-1 renal = system: CAKI-1 renal
OVCAR-8 ovarian = system: OVCAR-8 ovarian
SF-268 CNS = system: SF-268 CNS
HT29 colon = system: HT29 colon
PC-3 prostate = system: PC-3 prostate
MDA-MB-231 breast = system: MDA-MB-231 breast
SNB-75 CNS = system: SNB-75 CNS
SF-539 CNS = system: SF-539 CNS
LOX IMVI melanoma = system: LOX IMVI melanoma
EKVX NSCLC = system: EKVX NSCLC
CCRF-CEM leukemia = system: CCRF-CEM leukemia
A498 renal = system: A498 renal
NCI-H226 lung = system: NCI-H226 lung
UACC-62 melanoma = system: UACC-62 melanoma
OVCAR-3 ovarian = system: OVCAR-3 ovarian
T-47D breast = system: T-47D breast

## C=C1CC[C@@H]2[C@]3(C)COC(c4cn[nH]c4-c4ccc(C)cc4)O[C@@H]3CC[C@@]2(C)[C@@H]1C/C=C1/C(=O)OCC1O (stereo partly specified)
RPMI-8226 leukemia
  GI50: 4.73 µM
  TGI: > 100 µM
MCF7 breast
  GI50: 4.88 µM
  TGI: 19.4 µM
MOLT-4 leukemia
  GI50: 5.14 µM
  TGI: > 100 µM
KM12 colon
  GI50: 13.7 µM
  TGI: 35.8 µM
SW-620 colon
  GI50: 4.6 µM
  TGI: 17.5 µM
SK-MEL-5 melanoma
  GI50: 12.6 µM
  TGI: 25.3 µM
786-0 renal
  GI50: 16.7 µM
  TGI: 33.2 µM
HL-60(TB) leukemia
  GI50: 3.38 µM
  TGI: 56.4 µM
HOP-92 NSCLC
  GI50: 17.8 µM
  TGI: 42.5 µM
SK-OV-3 ovarian
  GI50: 26.5 µM
  TGI: 74.8 µM
SR leukemia
  GI50: 7.16 µM
  TGI: > 100 µM
U251 CNS
  GI50: 11.9 µM
  TGI: 28.6 µM
SNB-19 CNS
  GI50: 14.5 µM
  TGI: 27.6 µM
HS 578T breast
  GI50: 63.9 µM
  TGI: > 100 µM
SK-MEL-28 melanoma
  GI50: 12.8 µM
  TGI: 27 µM
IGROV1 ovarian
  GI50: 17.5 µM
  TGI: 39.7 µM
MDA-MB-435
  GI50: 7.38 µM
  TGI: 73.9 µM
K-562 leukemia
  GI50: 5.55 µM
  TGI: > 100 µM
HCT-116 colon
  GI50: 5.33 µM
  TGI: 20.6 µM
DU-145 prostate
  GI50: 24.6 µM
  TGI: > 100 µM
SK-MEL-2 melanoma
  GI50: 13.9 µM
  TGI: 30.4 µM
NCI-H522 lung
  GI50: 7.01 µM
  TGI: 22.5 µM
MALME-3M melanoma
  GI50: 15.8 µM
  TGI: 33.5 µM
RXF 393 renal
  GI50: 12.5 µM
  TGI: 25 µM
M14 melanoma
  GI50: 12.6 µM
  TGI: 26.2 µM
A549 NSCLC
  GI50: 26.4 µM
  TGI: > 100 µM
HCC-2998 colon
  GI50: 16.7 µM
  TGI: 30.4 µM
NCI-H23 lung
  GI50: 14 µM
  TGI: 27 µM
SF-295 CNS
  GI50: 18.2 µM
  TGI: 36.5 µM
HOP-62 NSCLC
  GI50: 21.7 µM
  TGI: 75.2 µM
COLO 205 colon
  GI50: 15.5 µM
  TGI: 29.9 µM
NCI-H460 lung
  GI50: 20 µM
  TGI: 46.9 µM
OVCAR-4 ovarian
  GI50: 64.8 µM
  TGI: > 100 µM
BT-549 breast
  GI50: 11.1 µM
  TGI: 37.8 µM
UACC-257 melanoma
  GI50: 15.2 µM
  TGI: 44.4 µM
ACHN renal
  GI50: 15.7 µM
  TGI: 36.3 µM
TK-10 renal
  GI50: 22.5 µM
  TGI: 48.3 µM
MDA-MB-468 breast
  GI50: 6.94 µM
  TGI: 22.1 µM
OVCAR-5 ovarian
  GI50: 15.5 µM
  TGI: 32.6 µM
UO-31 renal
  GI50: 12.5 µM
  TGI: 25.7 µM
SN12C renal
  GI50: 17.3 µM
  TGI: 42.8 µM
HCT-15 colon
  GI50: 10.1 µM
  TGI: 25.5 µM
CAKI-1 renal
  GI50: 12.5 µM
  TGI: > 100 µM
OVCAR-8 ovarian
  GI50: 9.29 µM
  TGI: > 100 µM
SF-268 CNS
  GI50: 34.7 µM
  TGI: > 100 µM
HT29 colon
  GI50: 13.1 µM
  TGI: 45.8 µM
PC-3 prostate
  GI50: 21.7 µM
  TGI: > 100 µM
MDA-MB-231 breast
  GI50: 19.2 µM
  TGI: 43.5 µM
SNB-75 CNS
  GI50: 20.6 µM
  TGI: > 100 µM
SF-539 CNS
  GI50: 12.7 µM
  TGI: 25.3 µM
LOX IMVI melanoma
  GI50: 3.76 µM
  TGI: 15.7 µM
EKVX NSCLC
  GI50: 18.2 µM
  TGI: 43.8 µM
CCRF-CEM leukemia
  GI50: 2.85 µM
  TGI: > 100 µM
A498 renal
  GI50: 21 µM
  TGI: 37.2 µM
NCI-H226 lung
  GI50: 17.8 µM
  TGI: 44.7 µM
UACC-62 melanoma
  GI50: 13.3 µM
  TGI: 27 µM
OVCAR-3 ovarian
  GI50: 3.39 µM
  TGI: 13.8 µM
T-47D breast
  GI50: 13.9 µM
  TGI: > 100 µM
